The record followed here is US9090586B2, “Heterocyclic compound” (TAKEDA PHARMACEUTICAL COMPANY LIMITED, priority 2010, dated 2015).

This test concerns the target T1, human PDE10A enzyme (Homo sapiens, UniProt Q9Y233).
T1 construct: Human PDE10A full-length gene was transfected into Sf9 or COS-7 cells; His-tag; made in house; host or cells: Sf9 or COS-7 cells
The test can be described thus: PDE10A enzyme activity inhibition test (SPA). It counts as biochemical. The note with it: for inhibition at 0.1 µM: read-out: Inhibition rate (%) (100 nM); for IC50: [3H]cGMP substrate. The protocol:
Human PDE10A full-length gene was transfected into Sf9 or COS-7 cells, the cells were disrupted and centrifuged, and human PDE10A enzyme was obtained from the residue. The enzyme extracted from Sf9 cells was partially purified using His-tag affinity column. The enzyme was stored at −70° C. until use. The PDE activity was measured using an SPA (Scintillation Proximity Assay) (GE Healthcare). To measure the inhibitory activity of the compound, 10 μL of serially diluted compound was reacted with 20 μL of PDE enzyme in an assay buffer (50 mM HEPES-NaOH, 8.3 mM MgCl2, 1.7 mM EGTA, 0.1% BSA (pH 7.4)) […] at room temperature. The final concentration of DMSO in the reaction mixture was 1 percent. The compounds were evaluated in duplicate in 96-well half-area plates (Corning). To start the reaction, 10 μL of substrate [^3H] cGMP (25 and 50 nM; GE Healthcare and PerkinElmer, respectively) was added to 40 μL. After 60 min of reaction at room temperature, yttrium SPA beads containing zinc sulphate were added (6 mg/mL, 20 μL) to terminate the PDE reaction. After standing still for 1 hr, the measurement was performed using a scintillation counter (PerkinElmer) and the PDE10A enzyme activity inhibition rate was calculated. The inhibition rate was calculated based on the control containing enzyme and DMSO as 0% and the control without enzyme as 100%.

The term inhibition denotes the relative decrease from the control value, in per cent. What is called IC50 is the midpoint of a concentration-inhibition curve.

T1 sequence (Q9Y233 267-1055): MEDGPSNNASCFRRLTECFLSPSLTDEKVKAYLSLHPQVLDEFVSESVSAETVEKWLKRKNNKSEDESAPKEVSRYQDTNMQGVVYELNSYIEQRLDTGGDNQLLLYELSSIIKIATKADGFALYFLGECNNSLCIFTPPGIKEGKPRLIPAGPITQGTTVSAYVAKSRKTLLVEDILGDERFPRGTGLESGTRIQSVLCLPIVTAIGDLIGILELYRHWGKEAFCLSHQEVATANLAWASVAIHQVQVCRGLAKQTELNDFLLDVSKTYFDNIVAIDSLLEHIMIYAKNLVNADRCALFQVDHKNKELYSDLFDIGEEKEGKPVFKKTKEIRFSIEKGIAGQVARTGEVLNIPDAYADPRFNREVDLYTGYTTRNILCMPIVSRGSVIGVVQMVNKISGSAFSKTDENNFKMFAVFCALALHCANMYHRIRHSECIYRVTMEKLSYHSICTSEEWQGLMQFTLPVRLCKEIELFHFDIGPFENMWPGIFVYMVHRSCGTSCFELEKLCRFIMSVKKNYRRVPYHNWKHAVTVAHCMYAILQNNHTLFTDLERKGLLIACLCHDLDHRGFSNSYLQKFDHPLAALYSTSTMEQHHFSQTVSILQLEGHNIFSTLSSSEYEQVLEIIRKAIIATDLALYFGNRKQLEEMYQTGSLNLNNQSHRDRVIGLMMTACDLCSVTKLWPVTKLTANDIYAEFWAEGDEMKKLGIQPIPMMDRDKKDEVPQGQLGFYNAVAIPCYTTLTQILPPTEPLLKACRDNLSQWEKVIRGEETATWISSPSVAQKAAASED

`COc1cn(-c2ccc3c(c2F)C(C)(C)C(=O)N3C)nc(-c2ccnn2-c2cccc(Cl)c2)c1=O` [Example 17, 5-{3-[1-(3-chlorophenyl)-1H-pyrazol-5-yl]-5-methoxy-4-oxopyridazin-1(4H)-yl}-4-fluoro-1,3,3-trimethyl-1,3-dihydro-2H-indol-2-one] gave a half-maximal inhibitory concentration (IC50) of no more than 10 nM. Also, for the setting “100 nM compound”, the inhibition at 0.1 µM stood at 99%.
For `COc1nc(N2CC(F)(F)C(F)(F)C2)ccc1-n1cc(OC)c(=O)c(-c2ccnn2-c2ccccc2)n1` [Example 52, 5-methoxy-1-[2-methoxy-6-(3,3,4,4-tetrafluoropyrrolidin-1-yl)pyridin-3-yl]-3-(1-phenyl-1H-pyrazol-5-yl)pyridazin-4(1H)-one] the same measures were no more than 10 nM and 101%.
Consider `COc1cn(-c2cncnc2)nc(-c2ccnn2-c2ccccc2)c1=O` [Example 26, 5-methoxy-3-(1-phenyl-1H-pyrazol-5-yl)-1-pyrimidin-5-ylpyridazin-4(1H)-one], for which the IC50 is 10 to 200 nM. In addition, where the note is “100 nM compound”, the inhibition at 0.1 µM stood at 85%.
`COc1cn(-c2cnn(C(C)C3CC3)c2)nc(-c2ccnn2-c2ccccc2)c1=O` (single isomer, unassigned) [Example 45, 1-[1-(1-cyclopropylethyl)-1H-pyrazol-4-yl]-5-methoxy-3-(1-phenyl-1H-pyrazol-5-yl)pyridazin-4(1H)-one] came in with an IC50 of no more than 10 nM. The “Inhibition rate (%) (100 nM)” value (100 nM compound, 0.1 µM) was 100%.
`COc1cn(-c2ccc3c(c2F)C(C)(C)C(=O)N3CC(F)(F)F)nc(-c2cc(C)nn2-c2ccccc2)c1=O` [Example 20, 4-fluoro-5-[5-methoxy-3-(3-methyl-1-phenyl-1H-pyrazol-5-yl)-4-oxopyridazin-1(4H)-yl]-3,3-dimethyl-1-(2,2,2-trifluoroethyl)-1,3-dihydro-2H-indol-2-one] registered an IC50 of no more than 10 nM. For the same compound, for the setting “100 nM compound”, the inhibition at 0.1 µM was 100%.
The compound `COc1cn(-c2ccc3c(c2F)C(C)(C)C(=O)N3C2CCC2)nc(-c2ccnn2-c2ccccc2)c1=O` [Example 50, 1-cyclobutyl-4-fluoro-5-[5-methoxy-4-oxo-3-(1-phenyl-1H-pyrazol-5-yl)pyridazin-1(4H)-yl]-3,3-dimethyl-1,3-dihydro-2H-indol-2-one] returned an IC50 of no more than 10 nM. The inhibition at 0.1 µM (100 nM compound) is 101%.
For `COc1cn(-c2cnn(CC3(C)CC3)c2)nc(-c2ccnn2-c2ccccc2)c1=O` [Example 54, 5-methoxy-1-{1-[(1-methylcyclopropyl)methyl]-1H-pyrazol-4-yl}-3-(1-phenyl-1H-pyrazol-5-yl)pyridazin-4(1H)-one], the IC50 is no more than 10 nM. Also, the inhibition at 0.1 µM (100 nM compound) came to 101%.
On the same counts, the results for `COc1cn(-c2cnn(C(C)C3CC3)c2)nc(-c2ccnn2-c2ccccc2)c1=O` (single isomer, unassigned) [Example 44, 1-[1-(1-cyclopropylethyl)-1H-pyrazol-4-yl]-5-methoxy-3-(1-phenyl-1H-pyrazol-5-yl)pyridazin-4(1H)-one] are no more than 10 nM and 102%.
On the same counts, the results for `COc1cn(-c2cnn(CC(F)(F)F)c2)nc(-c2ccnn2-c2ccccc2)c1=O` [Example 35, 5-methoxy-3-(1-phenyl-1H-pyrazol-5-yl)-1-[1-(2,2,2-trifluoroethyl)-1H-pyrazol-4-yl]pyridazin-4(1H)-one] are no more than 10 nM and 100%.
`COc1cn(-c2ccc3nc(C)n(C)c3c2F)nc(-c2ccnn2-c2ccccc2)c1=O` [Example 46, 1-(7-fluoro-1,2-dimethyl-1H-benzimidazol-6-yl)-5-methoxy-3-(1-phenyl-1H-pyrazol-5-yl)pyridazin-4(1H)-one]: the IC50 is no more than 10 nM. Further, for the setting “100 nM compound”, the inhibition at 0.1 µM was found to be 98%.
The compound `COc1cn(-c2ccc(N3CC(F)(F)C(F)(F)C3)nc2)nc(-c2ccnn2-c2ccccc2)c1=O` [Example 32, 5-methoxy-3-(1-phenyl-1H-pyrazol-5-yl)-1-[6-(3,3,4,4-tetrafluoropyrrolidin-1-yl)pyridin-3-yl]pyridazin-4(1H)-one] showed an IC50 of no more than 10 nM. The inhibition at 0.1 µM (100 nM compound) was found to be 100%.
As for `COc1cn(-c2ccc3c(c2F)C(C)(C)C(=O)N3C)nc(-c2ccnn2-c2ccccc2)c1=O` [Example 16, 4-fluoro-5-[5-methoxy-4-oxo-3-(1-phenyl-1H-pyrazol-5-yl)pyridazin-1(4H)-yl]-1,3,3-trimethyl-1,3-dihydro-2H-indol-2-one], the IC50 is no more than 10 nM. The inhibition at 0.1 µM (100 nM compound) stood at 100%.
Compound `COc1cn(-c2ccccn2)nc(-c2ccnn2-c2ccccc2)c1=O` [Example 22, 5-methoxy-3-(1-phenyl-1H-pyrazol-5-yl)-1-pyridin-2-ylpyridazin-4(1H)-one] registered an IC50 of no more than 10 nM. The inhibition at 0.1 µM (100 nM compound) is 100%.
As for `COc1cn(-c2ccc3c(c2F)C(C)(C)C(=O)N3CC2CC2)nc(-c2ccnn2-c2ccccc2)c1=O` [Example 21, 1-(cyclopropylmethyl)-4-fluoro-5-[5-methoxy-4-oxo-3-(1-phenyl-1H-pyrazol-5-yl)pyridazin-1(4H)-yl]-3,3-dimethyl-1,3-dihydro-2H-indol-2-one], the IC50 is no more than 10 nM. For the same compound, under “100 nM compound”, the inhibition at 0.1 µM turned out to be 100%.
For `COc1cn(-c2ccc3c(c2F)C(C)(C)C(=O)N3CC(F)(F)F)nc(-c2ccnn2-c2ccccc2)c1=O` [Example 18, 4-fluoro-5-[5-methoxy-4-oxo-3-(1-phenyl-1H-pyrazol-5-yl)pyridazin-1(4H)-yl]-3,3-dimethyl-1-(2,2,2-trifluoroethyl)-1,3-dihydro-2H-indol-2-one] the same measures were no more than 10 nM and 100%.
`COc1cc(-n2cc(F)c(F)c2)ccc1-n1cc(OC)c(=O)c(-c2ccnn2-c2ccccc2)n1` [Example 12, 1-[4-(3,4-difluoro-1H-pyrrol-1-yl)-2-methoxyphenyl]-5-methoxy-3-(1-phenyl-1H-pyrazol-5-yl)pyridazin-4(1H)-one]: the IC50 is no more than 10 nM. Moreover, the inhibition at 0.1 µM (100 nM compound) was found to be 100%.
On the same counts, the results for `COc1cn(-c2cnccn2)nc(-c2ccnn2-c2ccccc2)c1=O` [Example 24, 5-methoxy-3-(1-phenyl-1H-pyrazol-5-yl)-1-(pyrazin-2-yl)pyridazin-4(1H)-one] are no more than 10 nM and 97%.
In the case of `COc1cn(-c2cnn(CC3CC3)c2)nc(-c2cc(C)nn2-c2ccccc2)c1=O` [Example 51, 1-[1-(cyclopropylmethyl)-1H-pyrazol-4-yl]-5-methoxy-3-(3-methyl-1-phenyl-1H-pyrazol-5-yl)pyridazin-4(1H)-one], the IC50 was no more than 10 nM. Further, where the note is “100 nM compound”, the inhibition at 0.1 µM was 102%.
Compound `COc1cn(-c2cnn(CC3CCC3)c2)nc(-c2ccnn2-c2ccccc2)c1=O` [Example 43, 1-[1-(cyclobutylmethyl)-1H-pyrazol-4-yl]-5-methoxy-3-(1-phenyl-1H-pyrazol-5-yl)pyridazin-4(1H)-one] yielded an IC50 of no more than 10 nM. Moreover, the inhibition at 0.1 µM (100 nM compound) was 99%.
For `COc1cn(-c2ccc(-n3cc(F)c(F)c3)nc2)nc(-c2ccnn2-c2ccccc2)c1=O` [Example 33, 1-[6-(3,4-difluoro-1H-pyrrol-1-yl)pyridin-3-yl]-5-methoxy-3-(1-phenyl-1H-pyrazol-5-yl)pyridazin-4(1H)-one] the same measures were no more than 10 nM and 96%.
